Values after ≈ are worked out from the molar mass of the structure shown.
How the values were obtained:
Assay type in all cases: cell-based
[1] = test system: S. pneumoniae ATCC 51916; assay: MIC, S. pneumoniae; conditions: S. pneumoniae (Spn52); in µg/mL
[2] = test system: S. aureus ATCC 13709; assay: MIC, antibacterial potency, S. aureus; conditions: S. aureus (SA); in µg/mL
[3] = test system: E. coli 8 ATCC 25922; assay: MIC, E. coli 8 (wt); conditions: E. coli 8 (EC8)

Compound | MIC Spn52 [1] | MIC, SA [2] | MIC EC8 [3] [µg/mL]
CCc1[nH]c2nc(Oc3cncc(C(=O)O)c3)nc(Oc3cncnc3)c2c1Cl [700,932] | >64 | >64 | > 64
CCc1[nH]c2nc(Oc3cncc(C#N)c3)nc(Oc3cc(C#N)cc(OC)c3)c2c1Br [700,933] | 4 | 2 | > 64
CCc1[nH]c2nc(Oc3cncc(OC)c3)nc(N3CC(O)C3)c2c1Cl [700,934] | 16 | 4 | > 64
CCc1[nH]c2nc(Oc3cnc4ccoc4c3)nc(N3CC(N)C3)c2c1Br [700,935] | 32 | 2 | > 64
CCc1[nH]c2nc(Oc3cnc4ccoc4c3)nc(N3CC4CNC4C3)c2c1Cl (stereo not drawn) [700,936] | 32 | 64 | > 64
CCc1[nH]c2nc(Oc3cncc(OC)c3)nc(Oc3cncc(OC)c3)c2c1Br [700,937] | 1 | <=0.5 | > 64
CCc1[nH]c2nc(Oc3ccc4nccnc4c3)nc(Oc3ccc4nccnc4c3)c2c1Br [700,938] | <=0.5 | <=0.5 | > 64
CCc1[nH]c2nc(Oc3cnc4c(c3)ncn4C)nc(Oc3cnc4c(c3)ncn4C)c2c1Br [700,939] | 1 | <=0.5 | > 64
CCc1[nH]c2nc(Sc3ccc4cc5c([n+]([O-])c4c3)CCNC5)nc(N3CC[C@@H](N)C3)c2c1Cl [700,940] | 8 | 2 | 8 (≈ 16.1 µM)
CCc1[nH]c2nc(Oc3cncnc3)nc(N3CC4CNC4C3)c2c1Cl (stereo not drawn) [700,941] | 8 | 4 | > 64
CCc1[nH]c2nc(Sc3ccc4c(N5CC(N)C5)ncnc4c3)nc(N3CC[C@@H](N)C3)c2c1Cl [700,942] | 16 | 16 | 8 (≈ 16.1 µM)
CCc1[nH]c2nc(Sc3cnc4c(=N)n(CCCN5CCC(N)C5)c(C)nc4c3)nc(N3CC[C@@H](N)C3)c2c1Cl (stereo partly drawn) [700,943] | 32 | 32 | 64 (≈ 110 µM)
CCc1[nH]c2nc(Oc3ccc4c(N5CC(N)C5)ncnc4c3)nc(Oc3cccc(C#N)c3)c2c1Br [700,944] | 8 | 8 | > 64
CCc1[nH]c2nc(Oc3cncc(C#N)c3)nc(Oc3cncc(OC)c3)c2c1Br [700,945] | <=0.5 | <=0.5 | > 64
CCc1[nH]c2nc(Oc3cccc(C#N)c3)nc(C(C)N)c2c1Cl (stereo not drawn) [700,946] | >64 | >64 | > 64
CC(=O)c1nc(Oc2cccc(C#N)c2)nc2[nH]c(C(C)O)c(Cl)c12 (stereo not drawn) [700,947] | 64 | >64 | > 64
CCc1[nH]c2nc(Oc3ccc4nccnc4c3)nc(N3CC(O)C3)c2c1Cl [700,948] | 4 | <=0.5 | > 16
CCc1[nH]c2nc(Oc3ccc4sc(C)nc4c3)nc(Oc3cccc(C#N)c3)c2c1Br [700,949] | 4 | <=0.5 | > 64
CCc1[nH]c2nc(Oc3cccc(C#N)c3)nc(C(C)N3CCC(N)C3)c2c1Cl (stereo not drawn) [700,950] | >64 | >64 | > 64
CCc1[nH]c2nc(Oc3cccc(C#N)c3)nc(C(C)N3CC4C(N)C4C3)c2c1Cl (stereo not drawn) [700,951] | >16 | >16 | > 16
CCc1[nH]c2nc(Oc3cccc(C#N)c3)nc(C(C)N3CC4C(C3)C4(N)C(N)=O)c2c1Cl (stereo not drawn) [700,952] | 64 | 64 | > 64
CCc1[nH]c2nc(Oc3cccc(C#N)c3)nc(C(C)NCCO)c2c1Cl (stereo not drawn) [700,953] | >32 | >32 | > 32
CCc1[nH]c2nc(Oc3cccc(C#N)c3)nc(C(C)(NO)NO)c2c1Cl [700,954] | >32 | >32 | > 32
CCc1[nH]c2nc(Sc3ccc4c(N5CC[C@@H](N)C5)nc(C(=O)O)nc4c3)nc(N3CC[C@@H](N)C3)c2c1Cl [700,955] | >64 | 8 | 16 (≈ 28.9 µM)
CCc1[nH]c2nc(Sc3ccc4c(N5CC(CN)C5)nc(C)nc4c3)nc(N3CC4C(C3)C4(N)C(N)=O)c2c1Cl (stereo not drawn) [700,956] | 32 | 8 | > 64
CCc1[nH]c2nc(Sc3cnc4nccnc4c3)nc(N3CC4CC(O)C4C3)c2c1Cl (stereo not drawn) [700,957] | 1 | <=0.5 | > 32
CCc1[nH]c2nc(Sc3cnc4cccnc4c3)nc(N3C[C@@H]4NCCO[C@H]4C3)c2c1Cl [700,958] | 4 | 2 | > 32

Compound | MIC Spn52 [1] | MIC, SA [2] | MIC EC8 [3] [µg/mL]
CCc1[nH]c2nc(Sc3cnc4cccnc4c3)nc(N3C[C@@H]4NCCO[C@@H]4C3)c2c1Cl [700,959] | 2 | 2 | > 64
CCc1[nH]c2nc(Sc3ccc4c(N5CC(N)C5)ncnc4c3)nc(N3C[C@@H]4[C@H](C3)[C@@]4(N)C(N)=O)c2c1Cl [700,960] | 2 | 2 | > 32
CCc1[nH]c2nc(Oc3ccc4nccnc4c3)nc(C(C)=O)c2c1Cl [700,961] | 1 | 1 | > 64
CCc1[nH]c2nc(Oc3ccc4nccnc4c3)nc(N(C)C)c2c1Cl [700,962] | 2 | <=0.5 | > 8
CCc1[nH]c2nc(Oc3ccc4nccnc4c3)nc(N3CC(N)C3)c2c1Cl [700,963] | 4 | 1 | > 64
CCc1[nH]c2nc(Oc3cnc4c(c3)ncn4C)nc(Oc3cncc(OC)c3)c2c1Br [700,964] | <=0.5 | <=0.5 | > 64
CCc1[nH]c2nc(Oc3ccc4nccnc4c3)nc(Oc3cncnc3)c2c1Br [700,965] | <=0.5 | <=0.5 | 64 (≈ 138 µM)
CCc1[nH]c2nc(Oc3cncc(C#N)c3)nc(Oc3cccc(OC)c3)c2c1Br [700,966] | <=0.5 | <=0.5 | > 64
CCc1[nH]c2nc(Sc3cncnc3)nc(N3CC4C(C3)C4(N)C(N)=O)c2c1Cl (stereo not drawn) [700,967] | 4 | <=0.5 | > 64
CCc1[nH]c2nc(Sc3cnc(N)nc3)nc(N3CC4C(C3)C4(N)C(N)=O)c2c1Cl (stereo not drawn) [700,968] | >64 | 2 | > 64
CCc1[nH]c2nc(Sc3cncc(C#N)c3)nc(N3CC4C(C3)C4(N)C(N)=O)c2c1Cl (stereo not drawn) [700,969] | 2 | <=0.5 | > 64
CCc1[nH]c2nc(Sc3cc(C(=O)O)c4cnccc4c3)nc(N3CC[C@@H](N)C3)c2c1Cl [700,970] | 32 | 8 | > 64
CCc1[nH]c2nc(Sc3ccc4cc5c([n+]([O-])c4c3)CCNC5)nc(N3CC4C(C3)C4(N)C(N)=O)c2c1Cl (stereo not drawn) [700,971] | 2 | <=0.5 | > 64
CCc1[nH]c2nc(Sc3ccc4cc5c([n+]([O-])c4c3)CCNC5)nc(N3CC4C(N)C4C3)c2c1Cl (stereo not drawn) [700,972] | 1 | <=0.5 | 4 (≈ 7.87 µM)
CCc1[nH]c2nc(Sc3ccc4c(c3)C(=O)NC4)nc(N3CC4C(C3)C4(N)C(N)=O)c2c1Cl (stereo not drawn) [700,973] | 2 | <=0.5 | > 64
CCc1[nH]c2nc(Sc3ccc4c(c3)C(=O)NC4)nc(N3CC4C(N)C4C3)c2c1Cl (stereo not drawn) [700,974] | 2 | <=0.5 | 32 (≈ 72.6 µM)
NC(=O)C1(N)C2CN(c3nc(Sc4cnc5nccnc5c4)nc4[nH]c(C5CC5)c(Cl)c34)CC21 (stereo not drawn) [700,975] | 8 | 8 | > 64
NC1C2CN(c3nc(Sc4cnc5nccnc5c4)nc4[nH]c(C5CC5)c(Cl)c34)CC12 (stereo not drawn) [700,976] | 2 | 4 | 8 (≈ 17.7 µM)
N[C@@H]1CCN(c2nc(Sc3cnc4nccnc4c3)nc3[nH]c(C4CC4)c(Cl)c23)C1 [700,977] | 4 | 16 | 8 (≈ 18.2 µM)
CC(C)(C)OC(=O)N[C@@H]1CCN(c2nc(Sc3cnc4nccnc4c3)nc3[nH]c(C4CC4)c(Cl)c23)C1 [700,978] | >64 | >64 | > 64
CCc1[nH]c2nc(Oc3ccc4nccnc4c3)nc(Oc3ccc4c(N)nc(N)nc4c3)c2c1Br [700,979] | 4 | <=0.5 | > 64
CCc1[nH]c2nc(Oc3ccc4nccnc4c3)nc(N3CC4C(C3)C4(N)C(N)=O)c2c1Br (stereo not drawn) [700,980] | 2 | <=0.5 | > 32
CCc1[nH]c2nc(Oc3cncc(C#N)c3)nc(N3CC4C(C3)C4(N)C(N)=O)c2c1Cl (stereo not drawn) [700,981] | 16 | 16 | > 32
CCc1[nH]c2nc(Oc3cncc(OC)c3)nc(Oc3cccc(C#N)c3)c2c1Br [700,982] | <=0.5 | <=0.5 | > 64
CCc1[nH]c2nc(Sc3ccc4c(N5CCC(N)CC5)nc(C)nc4c3)nc(N3CC[C@@H](N)C3)c2c1Cl [700,983] | 32 | 32 | 32 (≈ 59.5 µM)
CCc1[nH]c2nc(Sc3ccc4c(N5CCC(N)CC5)nc(C)nc4c3)nc(N3CC4C(N)C4C3)c2c1Cl (stereo not drawn) [700,984] | 8 | 4 | 8 (≈ 14.5 µM)
CCc1[nH]c2nc(Sc3cnc4nccnc4c3)nc(N3CCC4(CC4N)C3)c2c1Cl (stereo not drawn) [700,986] | 2 | 1 | 64 (≈ 141 µM)

Source: US10047105B2, “Gyrase inhibitors” (Merck Sharp & Dohme Corp., priority 2009, dated 2018)
